We go through 1 compound from paper PMC7594721, “Synthesis and biological activity of 2-cyanoacrylamide derivatives tethered to imidazopyridine as TAK1 inhibitors” (Journal of Enzyme Inhibition and Medicinal Chemistry, 2020).

Assay in all cases: Kinase HotSpot profiling (Reaction Biology Corp.)
Format in all cases: biochemical
Holding throughout (conditions): ATP at Km

One experiment concerns the target T1, ASK1/MAP3K5 (Homo sapiens, UniProt Q99683).
T1 construct: purchased Reaction Biology Corp
T1 sequence (Q99683 1-1374): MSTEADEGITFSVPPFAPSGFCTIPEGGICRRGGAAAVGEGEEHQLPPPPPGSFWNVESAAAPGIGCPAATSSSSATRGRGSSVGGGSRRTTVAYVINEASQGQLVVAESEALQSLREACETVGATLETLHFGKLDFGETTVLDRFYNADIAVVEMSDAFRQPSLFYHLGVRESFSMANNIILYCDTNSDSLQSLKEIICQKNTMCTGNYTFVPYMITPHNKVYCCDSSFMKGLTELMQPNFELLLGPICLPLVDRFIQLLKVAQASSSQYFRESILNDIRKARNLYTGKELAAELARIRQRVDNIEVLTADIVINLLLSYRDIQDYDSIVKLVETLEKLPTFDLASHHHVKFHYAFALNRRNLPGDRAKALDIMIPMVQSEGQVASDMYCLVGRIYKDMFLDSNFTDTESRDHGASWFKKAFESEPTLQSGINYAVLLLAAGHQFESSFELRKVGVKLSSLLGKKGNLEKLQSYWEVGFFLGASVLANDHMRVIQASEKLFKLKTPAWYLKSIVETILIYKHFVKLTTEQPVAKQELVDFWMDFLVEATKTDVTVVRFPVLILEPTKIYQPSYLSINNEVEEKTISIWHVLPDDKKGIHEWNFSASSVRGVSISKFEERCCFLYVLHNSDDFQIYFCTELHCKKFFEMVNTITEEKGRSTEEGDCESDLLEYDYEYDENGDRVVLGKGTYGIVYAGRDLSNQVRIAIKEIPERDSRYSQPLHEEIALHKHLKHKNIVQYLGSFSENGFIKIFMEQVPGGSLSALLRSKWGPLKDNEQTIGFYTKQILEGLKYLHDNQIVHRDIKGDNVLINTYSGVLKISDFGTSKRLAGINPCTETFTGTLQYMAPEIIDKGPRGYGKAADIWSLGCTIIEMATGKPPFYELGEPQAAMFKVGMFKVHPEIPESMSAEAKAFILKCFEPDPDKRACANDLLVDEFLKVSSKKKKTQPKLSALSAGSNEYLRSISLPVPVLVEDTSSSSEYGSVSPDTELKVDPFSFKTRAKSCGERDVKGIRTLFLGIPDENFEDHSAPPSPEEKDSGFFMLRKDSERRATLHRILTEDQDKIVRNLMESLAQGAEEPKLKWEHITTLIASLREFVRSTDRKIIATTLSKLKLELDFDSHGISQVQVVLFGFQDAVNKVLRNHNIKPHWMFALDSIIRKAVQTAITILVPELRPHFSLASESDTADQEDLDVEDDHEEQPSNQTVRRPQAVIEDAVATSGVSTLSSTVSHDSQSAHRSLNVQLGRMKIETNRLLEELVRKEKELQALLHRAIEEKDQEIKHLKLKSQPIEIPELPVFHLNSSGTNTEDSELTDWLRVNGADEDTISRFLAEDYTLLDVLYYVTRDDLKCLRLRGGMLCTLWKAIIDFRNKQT
The procedure:
(§1) Kinase assays were performed by Invitrogen (now Thermo Fisher Scientific, Waltham, MA) or Reaction Biology Corp. (Malvern, PA). Inhibitory activity of compounds for TAK1 was evaluated using LanthaScreen® Eu Kinase Binding Assay (Invitrogen, Waltham, MA). The kinase profile of compound 13h was determined by the kinase HotSpot Profiling service of Reaction Biology Corporation. All assays were performed at Km for ATP.

For the next experiment, the target named is T2, BRAF (Homo sapiens, UniProt P15056).
T2 construct: purchased Reaction Biology Corp
The procedure: as §1

For a further experiment, the target named is T3, MEK1/MAP2K1 (Homo sapiens, UniProt Q02750).
T3 construct: purchased Reaction Biology Corp
The procedure:
as §1

The target of a further experiment is T4, MEK2/MAP2K2 (Homo sapiens, UniProt P36507).
T4 construct: purchased Reaction Biology Corp
The procedure: as §1

For a further experiment, the target named is T5, MEKK1 (Homo sapiens, UniProt Q13233).
T5 construct: purchased Reaction Biology Corp
On the procedure: as §1

In the next experiment the target is T6, MEKK2 (Homo sapiens, UniProt Q9Y2U5).
T6 construct: purchased Reaction Biology Corp
T6 sequence (Q9Y2U5 1-619): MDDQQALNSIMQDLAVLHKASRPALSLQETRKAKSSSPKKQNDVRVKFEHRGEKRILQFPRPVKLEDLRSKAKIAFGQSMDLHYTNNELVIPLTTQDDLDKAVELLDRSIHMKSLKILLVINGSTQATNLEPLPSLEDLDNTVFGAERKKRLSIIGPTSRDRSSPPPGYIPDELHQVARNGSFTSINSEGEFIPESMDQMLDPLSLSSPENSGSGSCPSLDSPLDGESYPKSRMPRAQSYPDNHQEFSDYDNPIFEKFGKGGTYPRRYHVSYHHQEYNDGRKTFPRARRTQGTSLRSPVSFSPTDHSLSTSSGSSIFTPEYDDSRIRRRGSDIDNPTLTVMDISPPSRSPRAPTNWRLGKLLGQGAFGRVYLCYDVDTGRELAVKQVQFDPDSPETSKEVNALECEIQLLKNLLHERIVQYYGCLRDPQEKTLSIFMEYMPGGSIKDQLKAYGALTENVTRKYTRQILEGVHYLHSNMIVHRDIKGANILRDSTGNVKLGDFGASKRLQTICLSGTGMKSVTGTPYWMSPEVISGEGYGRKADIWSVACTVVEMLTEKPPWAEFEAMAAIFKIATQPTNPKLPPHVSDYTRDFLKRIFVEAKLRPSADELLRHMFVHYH
The procedure:
as §1

The target of the next experiment is T7, MLK1/MAP3K9 (Homo sapiens, UniProt P80192).
T7 construct: purchased Reaction Biology Corp
The procedure:
as §1

Another experiment addresses T8, MLK2/MAP3K10 (Homo sapiens, UniProt Q02779).
T8 construct: purchased Reaction Biology Corp
On the procedure:
as §1

The next experiment deals with T9, ZAK/MLTK (Homo sapiens, UniProt Q9NYL2).
T9 construct: purchased Reaction Biology Corp
On the procedure:
as §1

T3 sequence (Q02750 whole entry): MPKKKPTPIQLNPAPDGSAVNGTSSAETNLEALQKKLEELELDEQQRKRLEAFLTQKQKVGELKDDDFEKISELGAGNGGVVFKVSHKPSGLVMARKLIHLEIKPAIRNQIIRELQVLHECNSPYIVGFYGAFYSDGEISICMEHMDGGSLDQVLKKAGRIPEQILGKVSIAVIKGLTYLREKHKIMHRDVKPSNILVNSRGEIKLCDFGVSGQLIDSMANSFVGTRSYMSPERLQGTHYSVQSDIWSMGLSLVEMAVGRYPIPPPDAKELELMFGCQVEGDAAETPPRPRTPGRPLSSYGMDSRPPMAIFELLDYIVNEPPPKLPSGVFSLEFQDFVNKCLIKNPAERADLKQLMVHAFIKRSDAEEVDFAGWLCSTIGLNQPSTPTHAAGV
T4 sequence (P36507 whole entry): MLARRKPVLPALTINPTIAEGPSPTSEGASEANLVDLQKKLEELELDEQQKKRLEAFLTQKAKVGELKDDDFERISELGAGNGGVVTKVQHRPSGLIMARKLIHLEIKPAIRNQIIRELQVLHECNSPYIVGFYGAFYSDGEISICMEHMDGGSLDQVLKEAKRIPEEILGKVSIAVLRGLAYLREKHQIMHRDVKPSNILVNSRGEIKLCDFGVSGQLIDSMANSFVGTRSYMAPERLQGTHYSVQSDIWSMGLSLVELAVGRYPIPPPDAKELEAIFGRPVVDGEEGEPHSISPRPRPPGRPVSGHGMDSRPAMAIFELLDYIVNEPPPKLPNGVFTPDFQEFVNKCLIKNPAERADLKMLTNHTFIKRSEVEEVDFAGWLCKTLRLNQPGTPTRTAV
T9 sequence (Q9NYL2 whole entry): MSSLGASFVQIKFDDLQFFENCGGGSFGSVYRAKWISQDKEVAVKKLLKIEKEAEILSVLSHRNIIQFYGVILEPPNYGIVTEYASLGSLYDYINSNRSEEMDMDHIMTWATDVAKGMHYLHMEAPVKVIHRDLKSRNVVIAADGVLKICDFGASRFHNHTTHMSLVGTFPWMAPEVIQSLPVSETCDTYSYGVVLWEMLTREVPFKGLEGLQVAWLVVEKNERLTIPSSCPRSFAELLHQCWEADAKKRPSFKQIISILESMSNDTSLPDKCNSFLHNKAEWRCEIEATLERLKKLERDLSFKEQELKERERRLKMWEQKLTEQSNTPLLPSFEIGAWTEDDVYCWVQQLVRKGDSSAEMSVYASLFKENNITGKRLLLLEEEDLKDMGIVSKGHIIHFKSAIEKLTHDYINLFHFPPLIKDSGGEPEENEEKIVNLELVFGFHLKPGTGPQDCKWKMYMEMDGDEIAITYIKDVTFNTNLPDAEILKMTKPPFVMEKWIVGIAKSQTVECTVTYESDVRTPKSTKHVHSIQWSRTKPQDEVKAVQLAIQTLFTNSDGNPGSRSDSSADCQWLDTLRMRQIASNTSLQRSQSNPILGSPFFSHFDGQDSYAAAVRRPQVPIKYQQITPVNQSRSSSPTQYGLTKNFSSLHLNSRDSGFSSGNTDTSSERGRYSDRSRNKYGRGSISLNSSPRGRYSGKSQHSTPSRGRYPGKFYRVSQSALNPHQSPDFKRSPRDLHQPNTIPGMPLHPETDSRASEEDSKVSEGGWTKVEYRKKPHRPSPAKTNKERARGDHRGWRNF
T5 sequence (Q13233 whole entry): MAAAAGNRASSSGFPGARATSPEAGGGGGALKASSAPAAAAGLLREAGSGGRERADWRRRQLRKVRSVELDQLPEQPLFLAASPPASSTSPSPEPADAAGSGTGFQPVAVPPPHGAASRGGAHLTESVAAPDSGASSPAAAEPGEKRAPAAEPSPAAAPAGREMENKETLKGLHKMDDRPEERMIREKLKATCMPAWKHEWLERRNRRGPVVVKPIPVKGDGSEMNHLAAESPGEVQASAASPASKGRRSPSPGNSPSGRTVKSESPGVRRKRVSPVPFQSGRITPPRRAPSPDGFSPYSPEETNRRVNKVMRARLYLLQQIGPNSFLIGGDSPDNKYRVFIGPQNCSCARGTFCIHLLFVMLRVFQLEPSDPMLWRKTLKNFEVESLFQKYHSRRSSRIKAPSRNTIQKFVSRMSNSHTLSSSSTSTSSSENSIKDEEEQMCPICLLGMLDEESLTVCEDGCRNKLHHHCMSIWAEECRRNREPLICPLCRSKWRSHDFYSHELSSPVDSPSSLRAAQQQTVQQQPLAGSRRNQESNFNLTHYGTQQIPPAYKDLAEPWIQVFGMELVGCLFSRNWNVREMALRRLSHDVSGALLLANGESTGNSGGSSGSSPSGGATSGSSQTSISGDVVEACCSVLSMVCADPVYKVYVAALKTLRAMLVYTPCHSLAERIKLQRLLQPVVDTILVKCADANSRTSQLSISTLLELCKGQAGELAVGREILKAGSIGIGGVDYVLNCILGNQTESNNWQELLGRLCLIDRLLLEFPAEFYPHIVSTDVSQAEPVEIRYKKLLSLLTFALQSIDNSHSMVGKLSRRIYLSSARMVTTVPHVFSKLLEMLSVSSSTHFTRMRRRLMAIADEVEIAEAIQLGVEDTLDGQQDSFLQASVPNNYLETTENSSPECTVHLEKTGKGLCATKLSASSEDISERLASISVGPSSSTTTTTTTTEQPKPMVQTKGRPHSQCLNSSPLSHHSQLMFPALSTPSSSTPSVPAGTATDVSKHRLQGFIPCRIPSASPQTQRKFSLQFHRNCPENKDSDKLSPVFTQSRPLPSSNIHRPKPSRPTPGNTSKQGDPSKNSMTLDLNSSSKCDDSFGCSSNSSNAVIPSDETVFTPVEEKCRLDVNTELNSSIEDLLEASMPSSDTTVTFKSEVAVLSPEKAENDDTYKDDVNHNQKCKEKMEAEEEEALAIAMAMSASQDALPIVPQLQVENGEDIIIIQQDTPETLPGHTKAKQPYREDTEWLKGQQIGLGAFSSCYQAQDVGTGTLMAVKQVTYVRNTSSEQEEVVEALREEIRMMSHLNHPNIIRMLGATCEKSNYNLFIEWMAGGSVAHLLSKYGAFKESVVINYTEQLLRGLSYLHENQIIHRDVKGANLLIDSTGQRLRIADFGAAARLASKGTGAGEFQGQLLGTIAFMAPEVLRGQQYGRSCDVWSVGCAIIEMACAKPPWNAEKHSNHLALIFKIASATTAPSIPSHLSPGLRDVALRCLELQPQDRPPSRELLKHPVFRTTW
T2 sequence (P15056 whole entry): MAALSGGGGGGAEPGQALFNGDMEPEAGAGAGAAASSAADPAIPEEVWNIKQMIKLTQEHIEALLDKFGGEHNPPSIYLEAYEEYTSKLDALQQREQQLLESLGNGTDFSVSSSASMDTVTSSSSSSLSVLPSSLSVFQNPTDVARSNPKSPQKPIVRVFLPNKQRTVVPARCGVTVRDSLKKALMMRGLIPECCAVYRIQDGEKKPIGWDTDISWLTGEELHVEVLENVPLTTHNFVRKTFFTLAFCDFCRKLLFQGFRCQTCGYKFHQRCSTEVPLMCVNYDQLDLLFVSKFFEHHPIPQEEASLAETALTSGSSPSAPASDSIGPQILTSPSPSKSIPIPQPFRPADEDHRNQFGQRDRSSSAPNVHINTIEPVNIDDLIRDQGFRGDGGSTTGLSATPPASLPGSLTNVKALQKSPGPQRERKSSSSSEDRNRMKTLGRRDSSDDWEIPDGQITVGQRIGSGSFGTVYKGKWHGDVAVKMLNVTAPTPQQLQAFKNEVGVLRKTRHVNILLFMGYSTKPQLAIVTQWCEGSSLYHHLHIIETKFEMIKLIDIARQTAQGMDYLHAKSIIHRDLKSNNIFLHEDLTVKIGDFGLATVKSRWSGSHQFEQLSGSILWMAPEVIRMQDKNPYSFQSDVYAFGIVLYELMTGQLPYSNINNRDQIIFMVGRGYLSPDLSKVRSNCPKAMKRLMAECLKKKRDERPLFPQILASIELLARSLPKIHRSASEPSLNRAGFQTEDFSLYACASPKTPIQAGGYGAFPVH
T8 sequence (Q02779 whole entry): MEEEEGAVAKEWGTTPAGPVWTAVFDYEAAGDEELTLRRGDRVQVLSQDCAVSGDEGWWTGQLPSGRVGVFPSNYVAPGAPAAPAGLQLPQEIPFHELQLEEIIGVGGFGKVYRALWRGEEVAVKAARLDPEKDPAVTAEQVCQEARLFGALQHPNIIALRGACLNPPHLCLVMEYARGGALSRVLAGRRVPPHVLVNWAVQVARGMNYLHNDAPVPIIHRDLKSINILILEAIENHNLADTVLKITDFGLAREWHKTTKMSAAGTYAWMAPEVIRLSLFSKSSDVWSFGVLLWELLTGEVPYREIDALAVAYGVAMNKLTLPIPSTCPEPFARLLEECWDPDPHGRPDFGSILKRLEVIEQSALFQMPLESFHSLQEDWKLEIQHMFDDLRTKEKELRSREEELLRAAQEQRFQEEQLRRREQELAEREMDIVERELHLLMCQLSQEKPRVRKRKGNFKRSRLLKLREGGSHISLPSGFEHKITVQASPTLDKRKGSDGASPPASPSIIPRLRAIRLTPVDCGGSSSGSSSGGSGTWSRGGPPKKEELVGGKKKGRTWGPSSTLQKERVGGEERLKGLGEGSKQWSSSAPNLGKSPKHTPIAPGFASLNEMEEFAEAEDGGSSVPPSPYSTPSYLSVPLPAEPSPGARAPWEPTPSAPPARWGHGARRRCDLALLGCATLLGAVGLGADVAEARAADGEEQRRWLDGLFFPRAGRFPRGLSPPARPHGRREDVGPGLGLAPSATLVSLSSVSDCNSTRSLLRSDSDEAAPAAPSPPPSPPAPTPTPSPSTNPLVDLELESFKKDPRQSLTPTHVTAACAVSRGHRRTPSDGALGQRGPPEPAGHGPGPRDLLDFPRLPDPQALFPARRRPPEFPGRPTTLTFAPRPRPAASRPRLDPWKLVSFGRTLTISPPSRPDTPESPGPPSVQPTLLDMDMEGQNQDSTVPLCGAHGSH

As to `Cc1cccc(/C=C(\C#N)C(=O)N[C@@H]2CCN(c3c(Cl)cnc4[nH]c(-c5ccc(N6CCN(C)CC6)cc5)nc34)C2)n1` [Compound 13h, (R,E)-N-(1–(6-chloro-2–(4-(4-methylpiperazin-1-yl)phenyl)-3H-imidazo[4,5-b]pyridin-7-yl)pyrrolidin-3-yl)-2-cyano-3-(6-methylpyridin-2-yl)acrylamide], the inhibition at 1 µM against ASK1/MAP3K5 amounted to 4%; against BRAF, 0%; against MEK1/MAP2K1 it was 10 ± 0.7%; against MEK2/MAP2K2, 23 ± 1.9%; against MEKK1, 12 ± 0.7%; against MEKK2, 0%. The inhibition at 1 µM against MLK1/MAP3K9 amounted to 35 ± 1.2%; against MLK2/MAP3K10, 30 ± 2%; against ZAK/MLTK it was 29 ± 1.4%.
